Measurements reported in patent EP4470536A1, “COMPOUND FOR USE IN TREATING FIBRODYSPLASIA OSSIFICANS PROGRESSIVA (FOP)” (Queen's University At Kingston, priority 2023, dated 2024).

Columns and labels:
RAR = RAR transcriptional activation assay (RARE-luc MCF-7 cells); assay type: cell-based; conditions: 0.1 nM to 10 µM, 24 hours of treatment; Figure 5
Text: This retinoid transcriptional activity assay measures the ability of a test compound to induce expression of a RA-sensitive reporter construct. This assay utilizes MCF-7 cells stably transduced with a gene construct comprising 4 tandem RA-response elements linked to a promoter driving transcriptional expression of the firefly luciferase encoding mRNA (RARE-luc). This construct serves as a sensitive reporter of retinoid-like activity.
RARE-luc transduced MCF-7 cells were maintained in a RPMI-1640 medium containing 10% FBS. Cells were grown in 96-well plates, and treated with the test compound diluted in DMSO in duplicate at 0.1 nM, 1 nM, 10 nM, 100 nM, 1 µM and 10 µM final concentrations. As a positive control for reporter activation, cells were also treated with RA diluted in DMSO at the same concentrations. DMSO treatment alone served as a negative control. After 24 hours of treatment, cells were harvested lysis buffer (Molecular Devices, San Jose, USA) and luciferase activity in cell lysates were read using a luminometer.

CYP26B1 [1] = biological target: T1, CYP26B1 (Homo sapiens, UniProt Q9NR63); assay: Microsome-based inhibitor assay (microsomes from CYP26B1-transfected HeLa cells); assay type: biochemical; conditions: 5µg microsomal fraction, 1mM NADPH, 1 hour at 37°C; Figure 3
T1 sequence (Q9NR63 1-512): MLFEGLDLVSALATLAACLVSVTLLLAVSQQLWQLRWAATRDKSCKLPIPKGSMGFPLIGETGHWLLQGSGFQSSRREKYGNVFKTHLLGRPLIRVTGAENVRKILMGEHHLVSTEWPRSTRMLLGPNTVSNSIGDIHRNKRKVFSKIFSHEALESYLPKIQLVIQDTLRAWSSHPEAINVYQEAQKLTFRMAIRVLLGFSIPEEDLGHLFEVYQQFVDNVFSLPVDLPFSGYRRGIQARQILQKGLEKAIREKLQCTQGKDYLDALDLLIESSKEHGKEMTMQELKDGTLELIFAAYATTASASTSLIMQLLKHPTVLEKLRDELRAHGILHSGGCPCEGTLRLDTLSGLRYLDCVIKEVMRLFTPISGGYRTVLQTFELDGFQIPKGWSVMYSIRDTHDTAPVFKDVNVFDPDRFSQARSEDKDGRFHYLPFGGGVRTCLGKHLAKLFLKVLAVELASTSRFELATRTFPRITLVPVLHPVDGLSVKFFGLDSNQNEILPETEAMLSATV
Procedure: This assay used cell-free microsomes to measure the ability of a test compound to inhibit the metabolism of RA. Microsomal fractions were obtained from CYP26B1 cDNA stably transfected HeLa cells by differential centrifugation of cell lysates. Assays were carried out in 48-well plates containing 5µg of microsomal fraction in Microsome Assay Buffer, containing 0.04µCi [^3H]-RA in the presence of increasing concentrations of a test compound, as described above for the HeLa cell-based assay. Reactions were initiated by addition of 1mM NADPH, and carried out for 1 hour at 37°C. Reactions were stopped, retinoids extracted, and data were collected and analyzed as described above for the HeLa cell-based assay.

[2] = system: growth plates of juvenile FVB mice; assay: Long bone growth and growth plate toxicity in juvenile mice; conditions: for Mean femur length (cm) / Mean tibia length (cm): oral gavage, P14-P41, juvenile FVB mice; for Mean modified Crural index: ratio of tibia over femur length
Text: A preclinical study was used to evaluate toxicity of various doses of compound 1 versus palovarotene on the growth plates of juvenile FVB mice following once daily (QD) or twice (BID) administration by oral gavage, over the juvenile development period, for 4 weeks (postnatal days 14-42 (P14-P42)). […] Resultant DICOM files were rendered in the RadiAnt viewer to obtain long bone measurements using the program's measuring tool (Figure 8A).

CYP26B1 [3] = biological target: T1, CYP26B1; assay: HeLa cell-based inhibitor assay (HeLa-CYP26B1), inhibition of all trans-RA metabolism; conditions: CYP26B1 cells; [3H]-RA, 3 hours at 37 °C; Figure 1
Procedure: CYP26A1 or CYP26B1 cDNA stably transfected HeLa cells were maintained in Minimum Essential Medium (MEM) containing 10% fetal bovine serum (FBS), 1X antibiotic/antimycotic cocktail, and […] hygromycin. Exponentially growing cells were harvested by incubation in trypsin. Cells were then collected and re-plated in 48-well culture plates at 1.5×10^5 (CYP26A1) or 1.5×10^4 (CYP26B1) cells in 0.2 mL of culture medium containing 0.04µCi [^3H]-RA (retinoic acid) in the presence or absence of increasing concentrations of a test compound. The test compound was diluted in dimethyl sulfoxide (DMSO) and then added in duplicate to wells to 0.01 nM, 0.1 nM, 1 nM, 10 nM, 100 nM, 1 µM, and 10 µM final concentrations. Cells were incubated for 3 hours at 37 °C. Retinoids were then extracted using the procedure of Bligh, et al., (1959), Canadian Journal of Biochemistry 37, 911-917, which was modified by using dichloromethane instead of chloroform. Each sample's water-soluble radioactivity level was quantified using a β-scintillation counter (using Ecolume scintillation fluid, available from MP Biomedicals of Solon, OH, USA). IC50 values represented the concentration of inhibitor required to inhibit all trans-RA metabolism by 50%, and were derived from log transformed data.

CC(C)(C)c1cccc(-c2cc3cc(/C=C/C(=O)O)ccc3[nH]2)c1 [Compound 1, (E)-3-(2-(3-(tert-butyl)phenyl)-1H-indol-5-yl)acrylic acid]
luciferase activity (RAR): did not induce luciferase activity significantly | IC50 (CYP26B1 [1]): 5.9 nM | Mean femur length (cm) ([2]; 3mg/kg BID): 1.38 ± 0.03 cm | Mean tibia length (cm) ([2]; 3mg/kg BID): 1.69 ± 0.04 cm | Mean modified Crural index ([2]; 3mg/kg BID): 1.23 ± 0.03 | Mean femur length (cm) ([2]; 6mg/kg BID): 1.33 ± 0.11 cm | Mean tibia length (cm) ([2]; 6mg/kg BID): 1.53 ± 0.05 cm | Mean modified Crural index ([2]; 6mg/kg BID): 1.15 ± 0.05 | Mean femur length (cm) ([2]; 10mg/kg BID): 1.34 ± 0.06 cm | Mean tibia length (cm) ([2]; 10mg/kg BID): 1.70 ± 0.04 cm | Mean modified Crural index ([2]; 10mg/kg BID): 1.27 ± 0.06 | Mean femur length (cm) ([2]; 18mg/kg QD): 1.10 ± 0.09 cm | Mean tibia length (cm) ([2]; 18mg/kg QD): 1.54 ± 0.07 cm | Mean modified Crural index ([2]; 18mg/kg QD): 1.40 ± 0.06 | disturbances to the growth of long bones and microarchitecture of the growth plates ([2]; at doses at least equally efficacious as palovarotene, Figures 8A, 8B, 9): not observed | IC50 (CYP26B1 [3]): 12.7 nM
